{"source": "patent US11702409B2", "about": "“Pyrazolyl derivatives useful as anti-cancer agents” (NOVARTIS AG, priority 2019, dated 2023)", "biological_target": "KRasG12C (M1-K169, biotinylated on the N-terminus) (Homo sapiens (Human), UniProt P01116, G12C)", "assay": "Covalent competition assay (scintillation proximity assay, competition with radiolabeled covalent probe Compound B)", "type": "binding", "settings": "in vitro KRASG12C activity; 10 nM KRasG12C:GDP, 25 nM radio-ligand and 475 nM unlabelled ligand, incubated 2 hours; read-out: Covalent Competition Assay IC50", "outline": "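Biotinylated KRasG12C (M1-K169):GDP incubated 2 h with agitation with serially diluted compounds premixed with a fixed concentration of radiolabeled covalent probe; scintillation proximity read-out of competition for covalent modification. Buffer 20 mM Tris-HCl pH 7.5, 150 mM NaCl, 0.1 mM MgCl2, 0.01% Tween-20. IC50 from 4-parameter fit.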"}
{"compound": "C=CC(=O)N1CC2(CC(n3nc(-c4cscn4)c(-c4c(Cl)c(C)cc5[nH]ncc45)c3C)C2)C1", "note": "(single isomer, unassigned) [Example 51b, 1-(6-(4-(5-chloro-6-methyl-1H-indazol-4-yl)-5-methyl-3-(thiazol-4-yl)-1H-pyrazol-1-yl)-2-azaspiro[3.3]heptan-2-yl)prop-2-en-1-one]", "values": [{"measurement": "IC50", "value": 36100, "unit": "nM"}]}
{"compound": "C=CC(=O)N1CC2(CC(n3nc(-c4ccc5ncnn5c4)c(-c4c(Cl)c(C)cc5[nH]ncc45)c3C)C2)C1", "note": "(single isomer, unassigned) [Example 23a]", "values": [{"measurement": "IC50", "value": 564, "unit": "nM"}]}
{"compound": "C=CC(=O)N1CC2(CC(n3nc(-c4ccn5ccnc5c4)c(-c4c(Cl)c(C)cc5[nH]ncc45)c3C)C2)C1", "note": "(single isomer, unassigned) [Example 33b]", "values": [{"measurement": "IC50", "value": "> 50000", "unit": "nM"}]}
{"compound": "C=CC(=O)N1CC2(CC(n3nc(-c4ccc(C(=O)NCCOC)nc4)c(-c4c(Cl)c(C)cc5[nH]ncc45)c3C)C2)C1", "note": "(single isomer, unassigned) [Example 64a]", "values": [{"measurement": "IC50", "value": 55, "unit": "nM"}]}
{"compound": "C=CC(=O)N1CC2(CC(n3nc(-c4ccc5c(c4)CS(=O)(=O)C5)c(-c4c(Cl)c(C)cc5[nH]ncc45)c3C)C2)C1", "note": "(single isomer, unassigned) [Example 72a]", "values": [{"measurement": "IC50", "value": 306, "unit": "nM"}]}
{"compound": "C=CC(=O)N1CC2(CC(n3nc(-c4ccc(C(=O)NCCOC)nc4)c(-c4c(Cl)c(C)cc5[nH]ncc45)c3C)C2)C1", "note": "(single isomer, unassigned) [Example 64b]", "values": [{"measurement": "IC50", "value": 24500, "unit": "nM"}]}
{"compound": "C=CC(=O)N1CC2(CC(n3nc(-c4ccc5c(c4)CN(C)C(=O)C5)c(-c4c(Cl)c(C)cc5[nH]ncc45)c3C)C2)C1", "note": "(single isomer, unassigned) [Example 21b]", "values": [{"measurement": "IC50", "value": 15000, "unit": "nM"}]}
{"compound": "C=CC(=O)N1CC2(CC(n3nc(-c4ccc(N)nc4)c(-c4c(Cl)c(C)cc5[nH]ncc45)c3C)C2)C1", "note": "[Example 79a, 1-(6-(3-(6-aminopyridin-3-yl)-4-(5-chloro-6-methyl-1H-indazol-4-yl)-5-methyl-1H-pyrazol-1-yl)-2-azaspiro[3.3]heptan-2-yl)prop-2-en-1-one]", "values": [{"measurement": "IC50", "value": 92, "unit": "nM"}]}
{"compound": "C=CC(=O)N1CC2(CC(n3nc(-c4ccc(NCCOC)cc4F)c(-c4c(Cl)c(C)cc5[nH]ncc45)c3C)C2)C1", "note": "(single isomer, unassigned) [Example 61a, 1-(6-(4-(5-chloro-6-methyl-1H-indazol-4-yl)-3-(2-fluoro-4-((2-methoxyethyl)amino)phenyl)-5-methyl-1H-pyrazol-1-yl)-2-azaspiro[3.3]heptan-2-yl)prop-2-en-1-one]", "values": [{"measurement": "IC50", "value": 27, "unit": "nM"}]}
{"compound": "C=CC(=O)N1CC2(CC(n3nc(-c4cccnc4C)c(-c4c(Cl)c(C)cc5[nH]ncc45)c3C(F)F)C2)C1", "note": "(single isomer, unassigned) [Example 84b, 1-(6-(4-(5-Chloro-6-methyl-1H-indazol-4-yl)-5-(difluoromethyl)-3-(2-methylpyridin-3-yl)-1H-pyrazol-1-yl)-2-azaspiro[3.3]heptan-2-yl)prop-2-en-1-one]", "values": [{"measurement": "IC50", "value": "> 50000", "unit": "nM"}]}
{"compound": "C=CC(=O)N1CC2(CC(n3nc(-c4ccc(OCCOC)cc4F)c(-c4c(Cl)c(C)cc5[nH]ncc45)c3C)C2)C1", "note": "(single isomer, unassigned) [Example 60b, 1-(6-(4-(5-chloro-6-methyl-1H-indazol-4-yl)-3-(2-fluoro-4-(2-methoxyethoxy)phenyl)-5-methyl-1H-pyrazol-1-yl)-2-azaspiro[3.3]heptan-2-yl)prop-2-en-1-one]", "values": [{"measurement": "IC50", "value": "> 5000", "unit": "nM"}]}
{"compound": "C=CC(=O)N1CC2(CC(n3nc(-c4ccc5[nH]ncc5c4)c(-c4c(Cl)c(C)cc5[nH]ncc45)c3C)C2)C1", "note": "(single isomer, unassigned) [Example 12b]", "values": [{"measurement": "IC50", "value": 6100, "unit": "nM"}]}
{"compound": "C=CC(=O)N1CC2(CC(n3nc(-c4ccc(C(=O)NCCOC)cc4)c(-c4c(Cl)c(C)cc5[nH]ncc45)c3C)C2)C1", "note": "(single isomer, unassigned) [Example 62a, 4-(1-(2-acryloyl-2-azaspiro[3.3]heptan-6-yl)-4-(5-chloro-6-methyl-1H-indazol-4-yl)-5-methyl-1H-pyrazol-3-yl)-N-(2-methoxyethyl)benzamide]", "values": [{"measurement": "IC50", "value": 45, "unit": "nM"}]}
{"compound": "C=CC(=O)N1CC2(CC(n3nc(-c4ccc5c(cnn5CCO)c4)c(-c4c(Cl)c(C)cc5[nH]ncc45)c3C)C2)C1", "note": "(single isomer, unassigned) [Example 83a, 1-(6-(4-(5-chloro-6-methyl-1H-indazol-4-yl)-3-(1-(2-hydroxyethyl)-1H-indazol-5-yl)-5-methyl-1H-pyrazol-1-yl)-2-azaspiro[3.3]heptan-2-yl)prop-2-en-1-one]", "values": [{"measurement": "IC50", "value": 18, "unit": "nM"}]}
{"compound": "C=CC(=O)N1CC2(CC(n3nc(C4=CCC(F)(F)CC4)c(-c4c(Cl)c(C)cc5[nH]ncc45)c3C)C2)C1", "note": "(single isomer, unassigned) [Example 3a]", "values": [{"measurement": "IC50", "value": 465, "unit": "nM"}]}
{"compound": "C=CC(=O)N1CC2(CC(n3nc(-c4ccc5c(cnn5CCN(C)C)c4)c(-c4c(Cl)c(C)cc5[nH]ncc45)c3C)C2)C1", "note": "(single isomer, unassigned) [Example 15a]", "values": [{"measurement": "IC50", "value": 16, "unit": "nM"}]}
{"compound": "C=CC(=O)N1CC2(CC(n3nc(-c4ccc5c(cnn5CCN(C)C)c4)c(-c4c(Cl)c(C)cc5[nH]ncc45)c3C)C2)C1", "note": "(single isomer, unassigned) [Example 15b]", "values": [{"measurement": "IC50", "value": 4800, "unit": "nM"}]}
{"compound": "C=CC(=O)N1CC2(CC(n3nc(-c4ccc5nn(CCOCCOC)cc5c4)c(-c4c(Cl)c(C)cc5[nH]ncc45)c3C)C2)C1", "note": "(single isomer, unassigned) [Example 43b]", "values": [{"measurement": "IC50", "value": 2900, "unit": "nM"}]}
{"compound": "C=CC(=O)N1CC2(CC(n3nc(-c4cccnc4)c(-c4c(Cl)c(C)cc5[nH]ncc45)c3C)C2)C1", "note": "(single isomer, unassigned) [Example 27b]", "values": [{"measurement": "IC50", "value": 19900, "unit": "nM"}]}
{"compound": "C=CC(=O)N1CC2(CC(n3nc(-c4ccc5c(c4)CS(=O)(=O)C5)c(-c4c(Cl)c(C)cc5[nH]ncc45)c3C)C2)C1", "note": "(single isomer, unassigned) [Example 72b]", "values": [{"measurement": "IC50", "value": 24000, "unit": "nM"}]}
{"compound": "C=CC(=O)N1CC2(CC(n3nc(-c4ccc5c(c4)N(C)CC(=O)O5)c(-c4c(Cl)c(C)cc5[nH]ncc45)c3C)C2)C1", "note": "(single isomer, unassigned) [Example 32b]", "values": [{"measurement": "IC50", "value": "> 50000", "unit": "nM"}]}
{"compound": "C=CC(=O)N1CC2(CC(n3nc(-c4ccc5nn(CCOC)cc5c4)c(-c4c(Cl)c(C)cc5[nH]nc(N)c45)c3C)C2)C1", "note": "(single isomer, unassigned) [Example 69b, 1-(6-(4-(3-amino-5-chloro-6-methyl-1H-indazol-4-yl)-3-(2-(2-methoxyethyl)-2H-indazol-5-yl)-5-methyl-1H-pyrazol-1-yl)-2-azaspiro[3.3]heptan-2-yl)prop-2-en-1-one]", "values": [{"measurement": "IC50", "value": 840, "unit": "nM"}]}
{"compound": "C=CC(=O)N1CC2(CC(n3nc(-c4ccc5cn[nH]c5c4)c(-c4c(Cl)c(C)cc5[nH]ncc45)c3C)C2)C1", "note": "[Example 14]", "values": [{"measurement": "IC50", "value": 310, "unit": "nM"}]}
{"compound": "C=CC(=O)N1CC2(CC(n3nc(-c4ccc5c(c4)N(C)CC(=O)O5)c(-c4c(Cl)c(C)cc5[nH]ncc45)c3C)C2)C1", "note": "(single isomer, unassigned) [Example 32a]", "values": [{"measurement": "IC50", "value": 871, "unit": "nM"}]}
{"compound": "C=CC(=O)N1CC2(CC(n3nc(-c4ccc(CN5CCCS5(=O)=O)cc4)c(-c4c(Cl)c(C)cc5[nH]ncc45)c3C)C2)C1", "note": "(single isomer, unassigned) [Example 5b]", "values": [{"measurement": "IC50", "value": 15000, "unit": "nM"}]}
{"compound": "C=CC(=O)N1CC2(CC(n3nc(-c4ccn5ccnc5c4)c(-c4c(Cl)c(C)cc5[nH]ncc45)c3C)C2)C1", "note": "(single isomer, unassigned) [Example 33a]", "values": [{"measurement": "IC50", "value": 253, "unit": "nM"}]}
{"compound": "C=CC(=O)N1CC2(CC(n3nc(-c4ccc(CN5CCCC5=O)cc4)c(-c4c(Cl)c(C)cc5[nH]ncc45)c3C)C2)C1", "note": "[Example 48, 1-(4-(1-(2-acryloyl-2-azaspiro[3.3]heptan-6-yl)-4-(5-chloro-6-methyl-1H-indazol-4-yl)-5-methyl-1H-pyrazol-3-yl)benzyl)pyrrolidin-2-one]", "values": [{"measurement": "IC50", "value": 49, "unit": "nM"}]}
{"compound": "C=CC(=O)N1CC2(CC(n3nc(-c4cc5cn(C)nc5cn4)c(-c4c(Cl)c(C)cc5[nH]ncc45)c3C)C2)C1", "note": "[Example 77]", "values": [{"measurement": "IC50", "value": 195, "unit": "nM"}]}
{"compound": "C=CC(=O)N1CC2(CC(n3nc(-c4ccc5nc(NC)ncc5c4)c(-c4c(Cl)c(C)cc5[nH]ncc45)c3C)C2)C1", "note": "(single isomer, unassigned) [Example 40b]", "values": [{"measurement": "IC50", "value": "> 50000", "unit": "nM"}]}
{"compound": "C=CC(=O)N1CC2(CC(n3nc(-c4ccc5nn(CCOC)cc5c4)c(-c4c(Cl)c(C)cc5[nH]ncc45)c3C)C2)C1", "note": "(single isomer, unassigned) [Example 41a, 1-(6-{(4M)-4-(5-Chloro-6-methyl-1H-indazol-4-yl)-3-[2-(2-methoxyethyl)-2H-indazol-5-yl]-5-methyl-1H-pyrazol-1-yl}-2-azaspiro[3.3]heptan-2-yl)prop-2-en-1-one]", "values": [{"measurement": "IC50", "value": 11, "unit": "nM"}]}
{"compound": "C=CC(=O)N1CC2(CC(n3nc(-c4ccc5c(c4)ncn5C)c(-c4c(Cl)c(C)cc5[nH]ncc45)c3C)C2)C1", "note": "(single isomer, unassigned) [Example 30a]", "values": [{"measurement": "IC50", "value": 103, "unit": "nM"}]}
{"compound": "C=CC(=O)N1CC2(CC(n3nc(-c4ccc(N5CCS(=O)(=O)CC5)cc4)c(-c4c(Cl)c(C)cc5[nH]ncc45)c3C)C2)C1", "note": "(single isomer, unassigned) [Example 50a, 1-(6-(4-(5-chloro-6-methyl-1H-indazol-4-yl)-3-(4-(1,1-dioxidothiomorpholino)phenyl)-5-methyl-1H-pyrazol-1-yl)-2-azaspiro[3.3]heptan-2-yl)prop-2-en-1-one]", "values": [{"measurement": "IC50", "value": 35, "unit": "nM"}]}
{"compound": "C=CC(=O)N1CC2(CC(n3nc(-c4ccc(C(=O)NCCOC)c(F)c4)c(-c4c(Cl)c(C)cc5[nH]ncc45)c3C)C2)C1", "note": "(single isomer, unassigned) [Example 63b]", "values": [{"measurement": "IC50", "value": 33800, "unit": "nM"}]}
{"compound": "C=CC(=O)N1CC2(CC(n3nc(-c4ccc5ncnn5c4)c(-c4c(Cl)c(C)cc5[nH]ncc45)c3C)C2)C1", "note": "(single isomer, unassigned) [Example 23b]", "values": [{"measurement": "IC50", "value": 13900, "unit": "nM"}]}
{"compound": "C=CC(=O)N1CC2(CC(n3nc(-c4cnc(N)c(F)c4)c(-c4c(Cl)c(C)cc5[nH]ncc45)c3C)C2)C1", "note": "(single isomer, unassigned) [Example 20b]", "values": [{"measurement": "IC50", "value": 12500, "unit": "nM"}]}
{"compound": "C=CC(=O)N1CC2(CC(n3nc(-c4ccc5c(cnn5CCO)c4)c(-c4c(Cl)c(C)cc5[nH]ncc45)c3C)C2)C1", "note": "(single isomer, unassigned) [Example 83b, 1-(6-(4-(5-chloro-6-methyl-1H-indazol-4-yl)-3-(1-(2-hydroxyethyl)-1H-indazol-5-yl)-5-methyl-1H-pyrazol-1-yl)-2-azaspiro[3.3]heptan-2-yl)prop-2-en-1-one]", "values": [{"measurement": "IC50", "value": 4000, "unit": "nM"}]}
